Experimental findings from ChEMBL document CHEMBL4184095, “Identification of novel small-molecule inhibitors of Zika virus infection” (Bioorg Med Chem Lett, 2018) are described below.

The structures appear in SMILES notation.

Data set [1] in a line: Cytotoxicity against human A549 cells assessed as cell viability at 1 uM by MTT assay relative to control. It counts as cell-based. As to conditions: read-out: Activity.
The nature of data set [2]: Cytotoxicity against human A549 cells assessed as cell viability at 100 uM by MTT assay relative to control. The conditions noted are these: read-out: Activity. It counts as cell-based. (In general: Formazan colour is commonly taken as a measure of viable cells.)
Data set [3] concerns Zika virus. Description: Antiviral activity against Zika virus infected in human A549 cells preincubated for 5 hrs followed by compound wash measured after 48 hrs by viral plague-forming assay. It counts as functional, organism-based.
In data set [4] the test system is Zika virus. Description: Antiviral activity against Zika virus infected in human A549 cells assessed as virus titer preincubated for 5 hrs followed by compound wash measured after 48 hrs by viral plague-forming assay. Type of data set: functional.
The nature of data set [5]: Cytotoxicity against human A549 cells assessed as cell viability at 0.1 uM by MTT assay relative to control. Type of data set: cell-based. As to conditions: read-out: Activity.
Data set [6] in a line: Cytotoxicity against human A549 cells assessed as cell viability at 10 uM by MTT assay relative to control. It counts as cell-based. The conditions noted are these: read-out: Activity.

The IC50 is the point on the concentration scale where inhibition reaches its midpoint. With `O=S(=O)(c1c(F)c(F)c(F)c(F)c1F)N1CCN(c2ccccc2)CC1`, the viability at 1 µM in data set [1] amounted to 103%. Further, the viability at 100 µM in data set [2] turned out to be 35%. This compound yielded an IC50 with Zika virus [3] of 0.00087 µM. Also, in the data set with Zika virus [4], the Activity amounted to 7 log10PFU/ml. In addition, in data set [5], the viability at 0.1 µM was determined as 93.1%. For the same compound, in data set [6], the viability at 10 µM worked out at 77%.

In the case of `C=CCSc1nsc(NC(=O)Nc2ccc(Cl)cc2)n1`, the viability at 1 µM in data set [1] came out at 98.1%. Also, the viability at 100 µM in data set [2] amounted to 15.1%. The same compound gave an IC50 in the data set on Zika virus [3] of 0.000189 µM. Moreover, in data set [5], the viability at 0.1 µM turned out to be 100%. For the same compound, in data set [6], the viability at 10 µM stood at 51.2%.

As for `COc1ccc(C2CNC(=O)C2)cc1OC1CCCC1` (stereo not drawn) [ROLIPRAM], the viability at 1 µM in data set [1] came to 114%. The viability at 100 µM in data set [2] turned out to be 43.4%. The compound further registered an IC50 with Zika virus [3] of 0.0446 µM. The Activity in the data set on Zika virus [4] came to 7 log10PFU/ml. Also, the viability at 0.1 µM in data set [5] came out at 107%. Moreover, the viability at 10 µM in data set [6] was 101%.

`C#CCSc1nsc(NC(=O)Nc2ccc(Cl)c(C(F)(F)F)c2)n1`: the viability at 1 µM in data set [1] is 97.8%. Besides, in data set [2], the viability at 100 µM turned out to be 18%. In the data set with Zika virus [3], this compound registered an IC50 of 0.0269 µM. For the same compound, the viability at 0.1 µM in data set [5] was determined as 99.8%. Besides, the viability at 10 µM in data set [6] amounted to 74.1%.

`O=C(Nc1nc(SCCOc2ccccc2)ns1)Nc1ccc(F)cc1F`: in data set [1], the viability at 1 µM stood at 102%. In addition, the viability at 100 µM in data set [2] amounted to 27.3%. Besides, in the data set with Zika virus [3], the IC50 came to 4.94 µM. For the same compound, in data set [5], the viability at 0.1 µM was 96.2%. Further, in data set [6], the viability at 10 µM was determined as 95.5%.

On to `CCCn1c(=O)[nH]c2nc(-c3ccc(S(=O)(=O)N4CCN(c5ccc(Cl)cc5)CC4)cc3)[nH]c2c1=O`, for which, in data set [1], the viability at 1 µM worked out at 97.4%. Moreover, the viability at 100 µM in data set [2] is 35.8%. The same compound displayed an IC50 in the data set on Zika virus [3] of 0.0438 µM. In data set [5], the viability at 0.1 µM amounted to 97.7%. Further, the viability at 10 µM in data set [6] stood at 86.5%.

As to `C#CCSc1nsc(NC(=O)Nc2ccccc2Cl)n1`, the viability at 1 µM in data set [1] was determined as 96.2%. Also, in data set [2], the viability at 100 µM turned out to be 21.4%. In addition, the midpoint of inhibition with Zika virus [3], the IC50, lay at 1.68 µM. Moreover, the viability at 0.1 µM in data set [5] was determined as 98.1%. For the same compound, in data set [6], the viability at 10 µM stood at 89.9%.

Consider `C=CCSc1nsc(NC(=O)Nc2ccc(Cl)cc2C(F)(F)F)n1`, for which, in data set [1], the viability at 1 µM came out at 104%. The viability at 100 µM in data set [2] is 43.1%. The same compound had an IC50 in the data set on Zika virus [3] of 0.000318 µM. Moreover, the viability at 0.1 µM in data set [5] turned out to be 102%. In data set [6], the viability at 10 µM came out at 95.8%.

`COc1ccc(CCCn2ncc3c2nc(N)n2nc(-c4ccco4)nc32)cc1`: in data set [1], the viability at 1 µM was found to be 106%. The viability at 100 µM in data set [2] amounted to 41.6%. In the data set with Zika virus [3], this compound returned a 50% inhibitory concentration (IC50) of 3.06 µM. In addition, the viability at 0.1 µM in data set [5] was 94.7%. The viability at 10 µM in data set [6] was 77.2%.

With `COc1ccc(C2CNC(=O)NC2)cc1O[C@@H]1C[C@H]2CC[C@H]1C2`, in data set [1], the viability at 1 µM was found to be 104%. The viability at 100 µM in data set [2] stood at 43.3%. In addition, inhibition in the data set on Zika virus [3] was half-maximal at 0.182 µM (IC50). The viability at 0.1 µM in data set [5] came out at 96.6%. Besides, the viability at 10 µM in data set [6] turned out to be 94.3%.

Take `COc1ccc([C@H]2CNC(=O)C2)cc1OC1CCCC1` [S-ROLIPRAM]: in data set [1], the viability at 1 µM was 105%. Moreover, the viability at 100 µM in data set [2] was found to be 40.9%. For the same compound, in the data set on Zika virus [3], the IC50 amounted to 0.0258 µM. The viability at 0.1 µM in data set [5] was 96.5%. Also, in data set [6], the viability at 10 µM was 97%.

Turning to `C=CCSc1nsc(NC(=O)Nc2cccc(C(C)=O)c2)n1`, in data set [1], the viability at 1 µM stood at 105%. Further, in data set [2], the viability at 100 µM worked out at 21.6%. Moreover, in the data set on Zika virus [3], the IC50 is 0.16 µM. Further, the Activity in the data set on Zika virus [4] is 7 log10PFU/ml. Also, in data set [5], the viability at 0.1 µM stood at 104%. Further, the viability at 10 µM in data set [6] amounted to 96.7%.

As to `Nc1nc(NCCc2ccc(O)cc2)nc2nc(-c3ccco3)nn12` [ZM-241385], the viability at 1 µM in data set [1] amounted to 110%. The viability at 100 µM in data set [2] came out at 32.6%. In the data set on Zika virus [3], this compound gave an IC50 of 1.07 µM. The viability at 0.1 µM in data set [5] worked out at 107%. In addition, the viability at 10 µM in data set [6] was 77.8%.

Take `CN1CCCC1=O` [METHYLPYRROLIDONE]: the viability at 1 µM in data set [1] amounted to 102%. Besides, the viability at 100 µM in data set [2] amounted to 39.3%. In addition, in data set [5], the viability at 0.1 µM came to 98.6%. The viability at 10 µM in data set [6] was 99.4%.

Take `O[C@H]1CC[C@H](Nc2nc(-c3ccccc3)nc3[nH]ccc23)CC1`: in data set [1], the viability at 1 µM amounted to 111%. In data set [2], the viability at 100 µM stood at 41.7%. This compound showed an IC50 with Zika virus [3] of 0.0586 µM. In addition, the viability at 0.1 µM in data set [5] was 106%. Further, the viability at 10 µM in data set [6] was found to be 98.5%.

With `C=CCSc1nsc(NC(=O)Nc2ccc(F)cc2F)n1`, the viability at 1 µM in data set [1] is 100%. In addition, the viability at 100 µM in data set [2] was 31.3%. This compound also displayed an IC50 with Zika virus [3] of 4.48 µM. Besides, in data set [5], the viability at 0.1 µM stood at 100%. Further, the viability at 10 µM in data set [6] amounted to 90.2%.

For `COc1ccc([C@@H]2CNC(=O)C2)cc1OC1CCCC1` [(-)-ROLIPRAM], the viability at 1 µM in data set [1] came out at 97.1%. Also, in data set [2], the viability at 100 µM was 39.1%. This compound also gave an IC50 with Zika virus [3] of 0.0776 µM. Moreover, the viability at 0.1 µM in data set [5] came out at 95.7%. In data set [6], the viability at 10 µM turned out to be 92.5%.

For `COCCOc1ccc(N2CCN(CCn3ncc4c3nc(N)n3nc(-c5ccco5)nc43)CC2)cc1` [PRELADENANT], the viability at 1 µM in data set [1] turned out to be 104%. Also, the viability at 100 µM in data set [2] turned out to be 27.9%. For the same compound, the IC50 in the data set with Zika virus [3] was 0.136 µM. The Activity in the data set with Zika virus [4] is 7 log10PFU/ml. Further, in data set [5], the viability at 0.1 µM is 109%. In data set [6], the viability at 10 µM was 57%.

Take `CCCOc1cc([C@]2(C)CNC(=O)O2)ccc1OC` [DAXALIPRAM]: the viability at 1 µM in data set [1] turned out to be 106%. Besides, the viability at 100 µM in data set [2] was found to be 41.8%. Also, the IC50 in the data set on Zika virus [3] came out at 0.769 µM. In addition, the viability at 0.1 µM in data set [5] worked out at 101%. In addition, the viability at 10 µM in data set [6] worked out at 95.3%.
